Tests used:
[1] = system: ABUTH (Abutilon theophrasti); assay: Postemergence herbicidal evaluation; assay type: in vivo, Medic.
Outline: (§1)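 Seedlings grown for about two weeks were sprayed postemergence and then kept under standard greenhouse care. Injury was rated visually 4–5 weeks after treatment on a 0–9 scale against untreated controls, and ratings from repeat tests were averaged.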

[2] = system: AMBEL (Ambrosia artemisifolia); assay: Postemergence herbicidal evaluation; assay type: in vivo, L.
Outline: as §1

[3] = system: CASOB (Cassia obtusifolia); assay: Postemergence herbicidal evaluation; assay type: in vivo, L.
Outline: as §1

[4] = system: CHEAL (Chenopodium album); assay: Postemergence herbicidal evaluation; assay type: in vivo, L.
Outline: as §1

GALAP (Galium aparine) [5] = assay: Postemergence herbicidal evaluation; assay type: in vivo
Outline: as §1

[6] = system: IPOHE (Ipomoea hederacea); assay: Postemergence herbicidal evaluation; assay type: in vivo, (L.) Jacq.
Outline: as §1

[7] = system: ECHCG (Echinochloa crus-galli); assay: Postemergence herbicidal evaluation; assay type: in vivo, (L.) Beau
Outline: as §1

[8] = system: GLXMAW (Soybean, Williams); assay: Postemergence herbicidal evaluation; assay type: in vivo, Glycine max, (L.) Merr. cv Williams
Outline: as §1

ZEAMX (Corn, Field) [9] = assay: Postemergence herbicidal evaluation; assay type: in vivo, Zea mays, L.
Outline: as §1

[10] = system: AMBEL (Ambrosia artemisifolia); assay: Preemergence herbicidal evaluation; assay type: in vivo, L.; settings: rated 4-5 weeks after treatment
Outline: (§2)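 Greenhouse preemergence test: freshly planted cups were sprayed once with an aqueous acetone solution of compound. Injury was judged visually on a 0–9 scale relative to a control, four to five weeks later.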

[11] = system: CASOB (Cassia obtusifolia); assay: Preemergence herbicidal evaluation; assay type: in vivo, L.; settings: rated 4-5 weeks after treatment
Outline: as §2

[12] = system: CHEAL (Chenopodium album); assay: Preemergence herbicidal evaluation; assay type: in vivo, L.; settings: rated 4-5 weeks after treatment
Outline: as §2

GALAP (Galium aparine) [13] = assay: Preemergence herbicidal evaluation; assay type: in vivo; settings: rated 4-5 weeks after treatment
Outline: as §2

[14] = system: IPOHE (Ipomoea hederacea); assay: Preemergence herbicidal evaluation; assay type: in vivo, (L.) Jacq.; settings: rated 4-5 weeks after treatment
[15] = system: GLXMAW (Soybean, Williams); assay: Preemergence herbicidal evaluation; assay type: in vivo, Glycine max, (L.) Merr. cv Williams; settings: rated 4-5 weeks after treatment
ORYSAT (Rice, Tebonnet) = assay: Preemergence herbicidal evaluation; assay type: in vivo, Oryza sativa, (L.) Tebonnet; settings: rated 4-5 weeks after treatment
[16] = system: TRZAWR (Wheat, Winter, cv Riband); assay: Preemergence herbicidal evaluation; assay type: in vivo, Triticum aestivum; settings: rated 4-5 weeks after treatment
Outline: as §2

ZEAMX (Corn, Field) [17] = assay: Preemergence herbicidal evaluation; assay type: in vivo, Zea mays, L.; settings: rated 4-5 weeks after treatment
[18] = system: ECHORC (Echinochloa oryzoides); assay: Flooded paddy, preemergence weed control; assay type: in vivo, Echinochloa oryzoides (Ard.) Fritsch.; settings: rated 3-4 weeks after treatment, 0-9 rating scale
Outline: (§3)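 Visual 0-9 rating versus control, scoring stand, vigor, malformation, size, chlorosis and overall appearance. Silt loam soil, propagules in top 0.5 cm; flood depth 1.5–3 cm held for the whole test; greenhouse.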

CYPIR (Cyperus iria) = assay: Flooded paddy, preemergence weed control; assay type: in vivo; settings: rated 3-4 weeks after treatment, 0-9 rating scale
Outline: as §3

[19] = system: CYPSE (Cyperus serotinus); assay: Flooded paddy, preemergence weed control; assay type: in vivo, Rottb.; settings: rated 3-4 weeks after treatment, 0-9 rating scale
Outline: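 Seeds or propagules were planted 0.5 cm deep in silt loam and flooded to 1.5–3 cm. Compounds in 50/50 v/v aqueous/acetone were pipetted into the flood water at about 0.0080 to 0.1250 kg/ha. After 3–4 weeks in the greenhouse, effect was rated visually on a 0–9 scale versus untreated control.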

[20] = system: SAGPY (Sagittaria pygmaea); assay: Flooded paddy, preemergence weed control; assay type: in vivo, L.; settings: rated 3-4 weeks after treatment, 0-9 rating scale
Outline: as §3

CCOc1cc(OCC)nc(-c2nsc3ccc(-n4c(=O)cc(C(F)(F)F)n(C)c4=O)cc23)n1 [Compound 43, 3-[3-(4,6-diethoxy-2-pyrimidinyl)-1,2-benzisothiazol-5-yl]-1-methyl-6-(trifluoromethyl)uracil]
Postemergence herbicidal rating, ABUTH ([1]; rate 0.0320 kg/ha): 9.0
Postemergence herbicidal rating, ABUTH ([1]; rate 0.0620 kg/ha): 9.0
Postemergence herbicidal rating, AMBEL ([2]; rate 0.0320 kg/ha): 9.0
Postemergence herbicidal rating, AMBEL ([2]; rate 0.0620 kg/ha): 9.0
Postemergence herbicidal rating, CASOB ([3]; rate 0.0320 kg/ha): 2.0
Postemergence herbicidal rating, CASOB ([3]; rate 0.0620 kg/ha): 3.0
Postemergence herbicidal rating, CHEAL ([4]; rate 0.0320 kg/ha): 6.0
Postemergence herbicidal rating, CHEAL ([4]; rate 0.0620 kg/ha): 9.0
Postemergence herbicidal rating, GALAP (GALAP (Galium aparine) [5]; rate 0.0320 kg/ha): 4.0
Postemergence herbicidal rating, GALAP (GALAP (Galium aparine) [5]; rate 0.0620 kg/ha): 4.0
Postemergence herbicidal rating, IPOHE ([6]; rate 0.0320 kg/ha): 9.0
Postemergence herbicidal rating, IPOHE ([6]; rate 0.0620 kg/ha): 9.0
Postemergence herbicidal rating, ECHCG ([7]; rate 0.0320 kg/ha): 2.0
Postemergence herbicidal rating, ECHCG ([7]; rate 0.0620 kg/ha): 2.0
Postemergence herbicidal rating, GLXMAW ([8]; rate 0.0320 kg/ha): 6.0
Postemergence herbicidal rating, GLXMAW ([8]; rate 0.0620 kg/ha): 6.0
Postemergence herbicidal rating, ZEAMX (ZEAMX (Corn, Field) [9]; rate 0.0320 kg/ha): 4.5
Postemergence herbicidal rating, ZEAMX (ZEAMX (Corn, Field) [9]; rate 0.0620 kg/ha): 4.5
Preemergence herbicidal rating AMBEL ([10]; Rate 0.0620 kg/ha): 0.0
Preemergence herbicidal rating AMBEL ([10]; Rate 0.1250 kg/ha): 1.0
Preemergence herbicidal rating AMBEL ([10]; Rate 0.2500 kg/ha): 7.0
Preemergence herbicidal rating CASOB ([11]; Rate 0.0620 kg/ha): 0.0
Preemergence herbicidal rating CASOB ([11]; Rate 0.1250 kg/ha): 0.0
Preemergence herbicidal rating CASOB ([11]; Rate 0.2500 kg/ha): 1.0
Preemergence herbicidal rating CHEAL ([12]; Rate 0.0620 kg/ha): 9.0
Preemergence herbicidal rating CHEAL ([12]; Rate 0.1250 kg/ha): 9.0
Preemergence herbicidal rating CHEAL ([12]; Rate 0.2500 kg/ha): 9.0
Preemergence herbicidal rating GALAP (GALAP (Galium aparine) [13]; Rate 0.0620 kg/ha): 1.0
Preemergence herbicidal rating GALAP (GALAP (Galium aparine) [13]; Rate 0.1250 kg/ha): 4.0
Preemergence herbicidal rating GALAP (GALAP (Galium aparine) [13]; Rate 0.2500 kg/ha): 5.0
Preemergence herbicidal rating IPOHE ([14]; Rate 0.0620 kg/ha): 0.0
Preemergence herbicidal rating IPOHE ([14]; Rate 0.1250 kg/ha): 0.0
Preemergence herbicidal rating IPOHE ([14]; Rate 0.2500 kg/ha): 2.0
Preemergence herbicidal rating GLXMAW ([15]; Rate 0.0620 kg/ha): 1.0
Preemergence herbicidal rating GLXMAW ([15]; Rate 0.1250 kg/ha): 3.0
Preemergence herbicidal rating GLXMAW ([15]; Rate 0.2500 kg/ha): 5.0
Preemergence herbicidal rating ORYSAT (ORYSAT (Rice, Tebonnet); Rate 0.0620 kg/ha): 1.0
Preemergence herbicidal rating ORYSAT (ORYSAT (Rice, Tebonnet); Rate 0.1250 kg/ha): 2.0
Preemergence herbicidal rating ORYSAT (ORYSAT (Rice, Tebonnet); Rate 0.2500 kg/ha): 2.0
Preemergence herbicidal rating TRZAWR ([16]; Rate 0.0620 kg/ha): 1.0
Preemergence herbicidal rating TRZAWR ([16]; Rate 0.1250 kg/ha): 1.0
Preemergence herbicidal rating TRZAWR ([16]; Rate 0.2500 kg/ha): 2.0
Preemergence herbicidal rating ZEAMX (ZEAMX (Corn, Field) [17]; Rate 0.0620 kg/ha): 2.0
Preemergence herbicidal rating ZEAMX (ZEAMX (Corn, Field) [17]; Rate 0.1250 kg/ha): 2.0
Preemergence herbicidal rating ZEAMX (ZEAMX (Corn, Field) [17]; Rate 0.2500 kg/ha): 6.0
herbicidal rating, ECHORC ([18]; rate 0.0320 kg/ha): 5.0
herbicidal rating, ECHORC ([18]; rate 0.1250 kg/ha): 9.0
herbicidal rating, CYPIR (CYPIR (Cyperus iria); rate 0.0320 kg/ha): 0.0
herbicidal rating, CYPIR (CYPIR (Cyperus iria); rate 0.1250 kg/ha): 5.0
herbicidal rating, CYPSE ([19]; rate 0.0320 kg/ha): 0.0
herbicidal rating, CYPSE ([19]; rate 0.1250 kg/ha): 0.0
herbicidal rating, SAGPY ([20]; rate 0.0320 kg/ha): 0.0
herbicidal rating, SAGPY ([20]; rate 0.1250 kg/ha): 2.0

Cn1c(C(F)(F)F)cc(=O)n(-c2ccc3snc(C4OCC(C)(C)CO4)c3c2)c1=O [Compound 36, 3-[3(5,5-dimethyl-m-dioxan-2-yl)-1,2-benzisothiazol-5-yl]-1-methyl-6-(trifluoromethyl)uracil]
Postemergence herbicidal rating, ABUTH ([1]; rate 0.0320 kg/ha): 9.0
Postemergence herbicidal rating, ABUTH ([1]; rate 0.0620 kg/ha): 9.0
Postemergence herbicidal rating, AMBEL ([2]; rate 0.0320 kg/ha): 9.0
Postemergence herbicidal rating, AMBEL ([2]; rate 0.0620 kg/ha): 9.0
Postemergence herbicidal rating, CASOB ([3]; rate 0.0320 kg/ha): 9.0
Postemergence herbicidal rating, CASOB ([3]; rate 0.0620 kg/ha): 9.0
Postemergence herbicidal rating, CHEAL ([4]; rate 0.0320 kg/ha): 7.0
Postemergence herbicidal rating, CHEAL ([4]; rate 0.0620 kg/ha): 9.0
Postemergence herbicidal rating, GALAP (GALAP (Galium aparine) [5]; rate 0.0320 kg/ha): 4.0
Postemergence herbicidal rating, GALAP (GALAP (Galium aparine) [5]; rate 0.0620 kg/ha): 5.0
Postemergence herbicidal rating, IPOHE ([6]; rate 0.0320 kg/ha): 9.0
Postemergence herbicidal rating, IPOHE ([6]; rate 0.0620 kg/ha): 9.0
Postemergence herbicidal rating, ECHCG ([7]; rate 0.0320 kg/ha): 1.0
Postemergence herbicidal rating, ECHCG ([7]; rate 0.0620 kg/ha): 3.0
Postemergence herbicidal rating, GLXMAW ([8]; rate 0.0320 kg/ha): 7.5
Postemergence herbicidal rating, GLXMAW ([8]; rate 0.0620 kg/ha): 9.0
Postemergence herbicidal rating, ZEAMX (ZEAMX (Corn, Field) [9]; rate 0.0320 kg/ha): 5.0
Postemergence herbicidal rating, ZEAMX (ZEAMX (Corn, Field) [9]; rate 0.0620 kg/ha): 6.0
AMBEL preemergence herbicidal rating ([10]; Rate 0.0620 kg/ha): 9.0
AMBEL preemergence herbicidal rating ([10]; Rate 0.1250 kg/ha): 9.0
AMBEL preemergence herbicidal rating ([10]; Rate 0.2500 kg/ha): 9.0
CASOB preemergence herbicidal rating ([11]; Rate 0.0620 kg/ha): 5.0
CASOB preemergence herbicidal rating ([11]; Rate 0.1250 kg/ha): 9.0
CASOB preemergence herbicidal rating ([11]; Rate 0.2500 kg/ha): 9.0
CHEAL preemergence herbicidal rating ([12]; Rate 0.0620 kg/ha): 9.0
CHEAL preemergence herbicidal rating ([12]; Rate 0.1250 kg/ha): 9.0
CHEAL preemergence herbicidal rating ([12]; Rate 0.2500 kg/ha): 9.0
GALAP preemergence herbicidal rating (GALAP (Galium aparine) [13]; Rate 0.0620 kg/ha): 5.0
GALAP preemergence herbicidal rating (GALAP (Galium aparine) [13]; Rate 0.1250 kg/ha): 9.0
GALAP preemergence herbicidal rating (GALAP (Galium aparine) [13]; Rate 0.2500 kg/ha): 9.0
IPOHE preemergence herbicidal rating ([14]; Rate 0.0620 kg/ha): 3.5
IPOHE preemergence herbicidal rating ([14]; Rate 0.1250 kg/ha): 6.5
IPOHE preemergence herbicidal rating ([14]; Rate 0.2500 kg/ha): 9.0
GLXMAW preemergence herbicidal rating ([15]; Rate 0.0620 kg/ha): 8.0
GLXMAW preemergence herbicidal rating ([15]; Rate 0.1250 kg/ha): 9.0
GLXMAW preemergence herbicidal rating ([15]; Rate 0.2500 kg/ha): 9.0
ORYSAT preemergence herbicidal rating (ORYSAT (Rice, Tebonnet); Rate 0.0620 kg/ha): 7.5
ORYSAT preemergence herbicidal rating (ORYSAT (Rice, Tebonnet); Rate 0.1250 kg/ha): 9.0
ORYSAT preemergence herbicidal rating (ORYSAT (Rice, Tebonnet); Rate 0.2500 kg/ha): 9.0
TRZAWR preemergence herbicidal rating ([16]; Rate 0.0620 kg/ha): 9.0
TRZAWR preemergence herbicidal rating ([16]; Rate 0.1250 kg/ha): 9.0
TRZAWR preemergence herbicidal rating ([16]; Rate 0.2500 kg/ha): 9.0
ZEAMX preemergence herbicidal rating (ZEAMX (Corn, Field) [17]; Rate 0.0620 kg/ha): 8.0
ZEAMX preemergence herbicidal rating (ZEAMX (Corn, Field) [17]; Rate 0.1250 kg/ha): 8.0
ZEAMX preemergence herbicidal rating (ZEAMX (Corn, Field) [17]; Rate 0.2500 kg/ha): 9.0
herbicidal rating, ECHORC ([18]; rate 0.0080 kg/ha): 5.0
herbicidal rating, ECHORC ([18]; rate 0.0320 kg/ha): 8.5
herbicidal rating, ECHORC ([18]; rate 0.1250 kg/ha): 9.0
herbicidal rating, CYPIR (CYPIR (Cyperus iria); rate 0.0080 kg/ha): 0.0
herbicidal rating, CYPIR (CYPIR (Cyperus iria); rate 0.0320 kg/ha): 9.0
herbicidal rating, CYPIR (CYPIR (Cyperus iria); rate 0.1250 kg/ha): 9.0
herbicidal rating, CYPSE ([19]; rate 0.0320 kg/ha): 9.0
herbicidal rating, CYPSE ([19]; rate 0.1250 kg/ha): 9.0
herbicidal rating, SAGPY ([20]; rate 0.0080 kg/ha): 0.0
herbicidal rating, SAGPY ([20]; rate 0.0320 kg/ha): 3.5
herbicidal rating, SAGPY ([20]; rate 0.1250 kg/ha): 9.0
